Article PMC10057480, “Expanding the Library of 1,2,4-Oxadiazole Derivatives: Discovery of New Farnesoid X Receptor (FXR) Antagonists/Pregnane X Receptor (PXR) Agonists” (Molecules, 2023)

How the values were obtained:
[1] = LogD measurement (1-octanol/PBS pH 7.4, LC-MS/MS); format: physicochemical
Protocol: 40 μL of a 10 mM solution in DMSO of each compound was added to a 2 mL test tube containing 980 μL of PBS pH 7.4 and 980 μL of 1-Octanol (in duplicate). The tubes were shaken for 2 h at room temperature and subsequently kept still to allow for an optimal phase separation. The two phases were then separated, and 10 μL of each sample was diluted in 490 μL of MeOH for LC-MS/MS analysis. LogD was calculated as Log10 of the ratio of mass signal octanol/PBS. LC-MS/MS analysis was conducted using a Kinetex 2.6 µm C18 100 Å LC column 100 × 2.1 mm by means of a linear gradient of the aqueous phase (H2O 0.1% FA) and organic phase (ACN 0.1% FA).

PXR = biological target: T1, PXR (Homo sapiens, UniProt O75469); assay: PXR luciferase reporter transactivation assay (agonism) on HepG2 cells; format: cell-based; details: concentration-response, mean ± SEM, at least three experiments
T1 construct: expressed in transfected cells; host or cells: HepG2
T1 sequence (O75469 1-434): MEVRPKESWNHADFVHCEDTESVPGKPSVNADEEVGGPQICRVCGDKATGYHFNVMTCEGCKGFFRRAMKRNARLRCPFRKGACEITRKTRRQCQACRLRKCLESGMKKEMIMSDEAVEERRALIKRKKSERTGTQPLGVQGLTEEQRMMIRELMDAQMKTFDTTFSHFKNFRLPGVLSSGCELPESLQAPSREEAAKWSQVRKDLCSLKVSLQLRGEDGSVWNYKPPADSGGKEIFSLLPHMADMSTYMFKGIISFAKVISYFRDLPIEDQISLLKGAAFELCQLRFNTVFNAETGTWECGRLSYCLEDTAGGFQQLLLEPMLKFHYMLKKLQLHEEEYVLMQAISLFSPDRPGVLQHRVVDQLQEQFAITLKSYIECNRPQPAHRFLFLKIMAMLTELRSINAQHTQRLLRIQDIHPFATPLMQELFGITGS
T1 sequence (P19793 1-462 partner): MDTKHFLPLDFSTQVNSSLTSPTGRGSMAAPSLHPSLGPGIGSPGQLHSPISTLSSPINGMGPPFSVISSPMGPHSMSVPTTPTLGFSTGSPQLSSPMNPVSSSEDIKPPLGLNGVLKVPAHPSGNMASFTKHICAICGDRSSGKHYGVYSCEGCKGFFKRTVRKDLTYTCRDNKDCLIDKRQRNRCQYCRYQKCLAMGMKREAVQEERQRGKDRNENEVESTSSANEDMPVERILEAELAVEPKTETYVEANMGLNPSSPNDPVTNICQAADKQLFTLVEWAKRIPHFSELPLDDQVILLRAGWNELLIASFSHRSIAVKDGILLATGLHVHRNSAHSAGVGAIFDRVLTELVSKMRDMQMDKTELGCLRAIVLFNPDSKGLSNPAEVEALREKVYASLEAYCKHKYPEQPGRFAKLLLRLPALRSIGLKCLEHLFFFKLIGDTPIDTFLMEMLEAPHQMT

| logD at 2 h [1] | EC50 (PXR) [µM] | SMILES |
| --- | --- | --- |
| 4.4 | 6.4 ± 0.1 | CCCCCN1CCC(c2nc(-c3ccc4ccccc4c3)no2)CC1 [Compound 5, 3-(Naphthalen-2-yl)-5-(1-pentylpiperidin-4-yl)-1,2,4-oxadiazole] |
| 3.9 | 7.5 ± 1 | OCc1ccc(CN2CCC(c3nc(-c4ccc5ccccc5c4)no3)CC2)cc1 [Compound 11, 5-[1-(4-(Hydroxymethyl)benzyl)piperidin-4-yl]-3-(naphthalen-2-yl)-1,2,4-oxadiazole] |
